This note sets out measurements from ChEMBL document CHEMBL1129411, “Synthesis and dopamine transporter affinity of 2-(methoxycarbonyl)-9-methyl-3-phenyl-9-azabicyclo[3.3.1]nonane derivatives” (J Med Chem, 1996).

In general, Ki refers to the equilibrium dissociation constant of an inhibitor or competing ligand from its target. A high value points to a looser hold on the target.

The test addresses Sodium-dependent dopamine transporter (Rattus norvegicus, UniProt P23977). Nature of the test: Binding affinity against dopamine transporter in rat caudate putamen tissue using [3H]WIN-35428 radioligand. It counts as tissue-based.

Sodium-dependent dopamine transporter, sequence (P23977 whole entry): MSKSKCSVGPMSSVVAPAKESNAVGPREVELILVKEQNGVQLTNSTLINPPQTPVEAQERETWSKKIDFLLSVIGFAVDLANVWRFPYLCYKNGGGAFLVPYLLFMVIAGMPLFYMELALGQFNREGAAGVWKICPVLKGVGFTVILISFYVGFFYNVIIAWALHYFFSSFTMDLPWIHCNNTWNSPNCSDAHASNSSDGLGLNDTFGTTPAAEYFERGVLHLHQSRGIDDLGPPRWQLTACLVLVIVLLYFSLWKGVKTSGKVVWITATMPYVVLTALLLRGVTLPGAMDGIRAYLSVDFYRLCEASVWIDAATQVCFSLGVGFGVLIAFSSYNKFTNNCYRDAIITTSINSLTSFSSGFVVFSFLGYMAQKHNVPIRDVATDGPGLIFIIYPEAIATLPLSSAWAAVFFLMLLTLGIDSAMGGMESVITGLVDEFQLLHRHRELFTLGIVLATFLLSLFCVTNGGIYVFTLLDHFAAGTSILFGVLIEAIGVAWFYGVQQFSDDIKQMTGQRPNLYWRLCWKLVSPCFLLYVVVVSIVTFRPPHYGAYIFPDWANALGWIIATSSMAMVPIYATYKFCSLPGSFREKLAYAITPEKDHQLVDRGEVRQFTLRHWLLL

Compound `CO/C(O)=C1/C(=O)CCC2CCCC1N2C` (centres undefined) registered a Ki greater than 100000 nM.
Consider `COC(=O)[C@@H]1C2CC[C@H](C[C@@H]1c1ccccc1)N2C`, for which the affinity corresponds to a Ki of 310 nM.
Turning to `CN1C2CCCC1C(C(=O)c1ccccc1)C(c1ccccc1)C2` (stereo in doubt; 13), the inhibitory constant (Ki) is 3970 nM.
In the case of `CN1C2CCCC1C(C(=O)c1ccccc1)C(c1ccccc1)C2` (stereo in doubt; 14) it was 1910 nM.
